The results in this text go back to US20230365639A1, “DEFENSIN FRAGMENT DERIVED LIPOPEPTIDES FOR TREATMENT OF DRUG-RESISTANT MICROORGANISMS” (priority 2020, published 2023).

Data set [1] deals with C. tropicalis. Description: Broth microdilution assay, antifungal activity. It is filed as cell-based. Here is the method: (§1) Methods: Broth microdilution assay. Candida was cultured in TSB over night at 37° C., centrifuged (1500 rpm, 10 min, RT) and washed twice with 10 mM sodium phosphate buffer containing 1% (w/v) TSB. Candida cells were counted and approximately 5×10^5 CFU/ml fungi were incubated with serial peptide concentrations (1.17-150 μM) in a final volume of 100 μl in 10 mM sodium phosphate buffer containing 1% (w/v) TSB for 2 hours at 37° C. After incubation, 100 μl of 6% TSB (w/v) was added and absorbance was measured at 600 nm (Tecan, Switzerland) and monitored for 18 hours. Afterwards, 100 μl per well was plated on YPD agar to determine the number of viable bacteria microbiologically.

Data set [2] relates to C. albicans. Description: Broth microdilution assay, antifungal activity. It is filed as cell-based. The protocol:
as §1
Background: Broth dilution looks for growth in wells or tubes with falling amounts of substance.

Data set [3] relates to S. Typhimurium. As to the kind of experiment: Acute gastrointestinal infection caused by S. Typhimurium. In kind it is in vivo, mice. Here is the method: Methods: Analysis of bacterial loads in feces. Fresh fecal samples were collected and weighted. Samples were homogenized in 1 ml LB media by bead-beating with 1 mm zirconia/silica beads twice for 25 s using a Mini-Beadbeater-96 (BioSpec). To determine CFUs, dilutions of homogenized samples were plated on LB plates with 50 μg/ml kanamycin. Analysis of bacterial loads in intestinal content and systemic organs. All mice were euthanized by asphyxiation with CO2 at indicated time points. Intestinal tissues (small intestine, cecum, colon) were removed aseptically. To collect intestinal content, organs were flushed with PBS. Organs were opened longitudinally, cleaned thoroughly with PBS and weighted. Organs and content were homogenized in PBS using a Polytron homogenizer ([…]). Dilutions of homogenized samples were plated on LB plates containing 50 μg/ml kanamycin to determine CFUs. For S. Typhimurium infection experiments, age- and sex-matched mice between 10 and 14 weeks of age were used. Both-female and male mice were used in experiments. Water and food were withdrawn for 4 hours before mice were treated with 20 mg/mouse of streptomycin by oral gavage. Afterwards, mice were supplied with water and food ad libitum. 20 hours after streptomycin treatment, water and food were withdrawn again, 4 hours before the mice were orally infected with 10^5 CFU of S. Typhimurium in 200 μl PBS. […]

Data set [4] can be described thus: Acute tolerability after oral administration. It is filed as in vivo, C57BL/6N mice. From the text: Methods: C57BL/6N mice were generated and maintained (including breeding and housing) at the animal facilities of the Helmholtz Centre for Infection Research (HZI) under enhanced specific pathogen-free (SPF) conditions (Stehr et al., 2009). Animals used in the experiments were gender and age matched. Female and male mice with an age of 8-12 weeks were used. Sterilized food and water ad libitum were provided. Mice were kept under a strict 12-hour light cycle (lights on at 7:00 am and off at […]) and housed in groups of two to six mice per cage. All mice were euthanized by asphyxiation with CO2 and cervical dislocation. All animal experiments were performed in agreement with the local government of Lower Saxony, Germany (approved permission No. 33.19-42502-04-18/2499).
Age- and gender-matched mice received two doses of peptides (0, 125 μg or 250 μg) solved in 100 μl PBS orally per day. Bodyweight and appearance were recorded. The following day, mice were sacrificed and stomach, kidney, spleen, liver, small intestine, cecum and colon were removed for histological scoring. Around 1 ml of blood was taken from the heart to measure inflammatory markers including creatinine in the kidney and the enzyme levels of glutamate-oxalacetate-transaminase (GOT) in the liver.

Data set [5] can be described thus: Cellular toxicity, lactate dehydrogenase (LDH) assay. It is filed as cell-based. The protocol: Methods: Cellular toxicity was determined by Lactate dehydrogenase concentration and WST-1 cell proliferation assay as well as hemolysis assay.
The test system of data set [6] is bacteria from the ESKAPE panel. In kind it is cell-based. Particulars: broth microdilution, 1.17-150 μM peptide, 2 hours. The protocol: Methods: Broth microdilution assay. Log-phase bacteria were collected by centrifugation (2500 rpm, 10 min, 4° C.), washed twice with 10 mM sodium phosphate buffer containing 1% (w/v) TSB and the optical density at 600 nm was adjusted to 0.1. Approximately 5×10^5 CFU/ml bacteria were incubated with serial peptide concentrations (1.17-150 μM) in a final volume of 100 μl in 10 mM sodium phosphate buffer containing 1% (w/v) TSB for 2 hours at 37° C. After incubation, 100 μl of 6% TSB (w/v) was added and absorbance was measured at 600 nm (Tecan, Switzerland) and monitored for 18 hours. Afterwards, 100 μl per well was plated on LB agar to determine the number of viable bacteria microbiologically. Bactericidal activity was expressed as the LC99.9, the lowest concentration that killed ≥99.9% of bacteria.

In data set [7] the test system is ypuA promoter. Description: ypuA promoter luciferase reporter gene assay. In kind it is cell-based, Bacillus subitilis 1S34. The protocol: A specific bacterial reporter strain with the genetic background of Bacillus subitilis 1S34, carrying the promoter of the ypuA gene, fused to the firefly luciferase reporter gene, was used to identify cell envelope-related damage caused by treatment with antimicrobial compounds. Bacteria were cultured to an OD600 of 0.9 in LB broth with 5 μg/ml erythromycin at 37° C. and diluted to an OD600 of 0.02. Serial peptide dilutions (0.15-150 μM) were prepared in a microtiter plate and incubated with the adjusted bacterial suspension at 37° C. for 1 hour. Subsequently, citrate buffer (0.1 M, pH 5) containing 2 mM luciferin (Iris Biotech, Germany) was added and luminescence was measured using a microplate reader (Tecan, Switzerland).
On the technique in general: Reporter assays use an easily measured gene product as a stand-in for the process of interest.

On to Pam2-Glc-Suc-RGKAKCCK [Pam-1], for which, in data set [1], the “antifungal activity against C. tropicalis” value is reported as “no antifungal activity”. In data set [2], the “antifungal activity against C. albicans” value was “no antifungal activity”. In data set [3] (250 μg orally 6 and 22 hours post infection, vs PBS, Mann-Whitney test), the “CFU of S. Typhimurium in cecum content” value was “significantly reduced”. In addition, the “CFU's in gut content and gut tissue, acute model (summary)” value in data set [3] (mouse, in vivo) is “significant CFU reduction in the acute model and this only for gut content”. For the same substance, in data set [4] (mouse, in vivo, po), the “histological examination of gastrointestinal, liver and kidney tissues” value is on record as “no alterations”; the “serum level of creatinine” value is listed as “no significant differences between the groups”; the “serum level of glutamic oxaloacetic transaminase (GOT)” value is reported as “no significant differences between the groups”. For the same substance, the “acute toxicity (histological analysis and serum markers)” value in data set [4] (oral, mice, 24 hours after application, 125 or 250 μg doses) was “did not reveal any acute toxicity”. Also, the “LDH activity (cytotoxicity)” value in data set [5] is recorded as “no LDH activity”. In addition, in data set [6], the bactericidal activity entry is on record as “no or low bactericidal activity”. For the same substance, the “cell envelope damage (ypuA reporter)” value in data set [7] was “little cell envelope damage”.
